Like-named read-outs stand apart in the source and are kept apart here.
How the values were obtained:
[1] = tested on: MDA-MB-231 cells; assay: MTT cytotoxicity assay, MDA-MB-231; type: cell-based, human; settings: for IC50: MTT
Procedure: The cytotoxic effects of the compounds were evaluated by the MTT [3-(4,5-dimethylthiazol-2-yl)-2,5-diphenyltetrazolium bromide] assay. […] Untreated controls were also included. Following incubation, 20 μL of 5 mg/mL MTT solution was added to each well and incubated at 37 °C for 3 h. Next, 100 μL of DMSO was added to dissolve the purple precipitate of formazan crystal. The absorbance at 570 nm and 630 nm as reference wavelength was measured by a microplate reader (BioTek EL 800, United States).
(§1) Cell growth inhibition (%) = [1 - (ODTreated/OD Control)] × 100.

[2] = tested on: MCF-7 cells; assay: MTT cytotoxicity assay, MCF-7; type: cell-based, human
Procedure: (§2) The cytotoxic effects of the compounds were evaluated by the MTT [3-(4,5-dimethylthiazol-2-yl)-2,5-diphenyltetrazolium bromide] assay. The cells (50,000 cells/mL) were treated with various concentrations of the compounds (0.94–30 μM) in a 96-well plate for 72 h. Untreated controls were also included. Following incubation, 20 μL of 5 mg/mL MTT solution was added to each well and incubated at 37 °C for 3 h. Next, 100 μL of DMSO was added to dissolve the purple precipitate of formazan crystal. The absorbance at 570 nm and 630 nm as reference wavelength was measured by a microplate reader (BioTek EL 800, United States).
as §1

[3] = tested on: HT-29 cells; assay: MTT cytotoxicity assay, HT-29; type: cell-based, human; settings: HT-29, 72 h
Procedure: as §2, §1

[4] = tested on: A-549 cells; assay: MTT cytotoxicity assay, A-549; type: cell-based, human; settings: A-549, 72 h
Procedure: as §2, §1

[5] = tested on: HeLa cells; assay: MTT cytotoxicity assay, HeLa; type: cell-based, human; settings: 72 h
Procedure: as §2, §1

[6] = tested on: mouse embryonic fibroblast NIH/3 T3 cells; assay: MTT cytotoxicity assay, NIH/3T3; type: cell-based; settings: 3T3, 72 h
Procedure: as §2, §1

[7] = tested on: MCF-10A normal breast epithelial cells; assay: MTT cytotoxicity assay, MCF10A; type: cell-based, human; settings: 72 h
Procedure: as §2, §1

[8] = tested on: MDA-MB-231 cells; assay: Morphological changes under inverted light microscope; type: cell-based, human
Procedure: Briefly, 150,000 cells per well of MDA-MB-231 cells were seeded in a 6-well plate and incubated for 24 h. Next, the cells were treated with ampelopsin E (7.5–30 μM) and further incubated for 72 h. The untreated cells were included as a control. The image was captured at 0, 24, 48 and 72 h at the same spot under an inverted microscope (Olympus, Japan).

[9] = tested on: MDA-MB-231 cells; assay: Cell cycle analysis by flow cytometer; type: cell-based, human; settings: 15 and 30 μM; 24, 48 and 72 h; p < 0.05
Procedure: MDA-MB-231 cells were seeded at 800,000 cells per 75 cm^2 flask. Next, the cells were treated with ampelopsin E (7.5–30 μM). The untreated cells were also included as a control. The cells were incubated for 24, 48 and 72 h. Next, the cells were trypsinized, washed twice with ice cold PBS and collected. The cell pellet was fixed with ice-cold 70 % ethanol and stored at −20 °C. After a week, the cells were washed once again with ice-cold PBS. The cell pellet was mixed up with 250 μL Guava cell cycle reagents (EMD, Milliport Corporation, Hayward) and 300 μL PBS. The population of cells in each phase was measured by a flow cytometer (FACSCalibur, Becton Dickinson, USA). The results were analysed by using ModFit LT™ software.

[10] = tested on: MDA-MB-231 cells; assay: Annexin V/PI flow cytometric analysis of mode of cell death; type: cell-based, human; settings: for percentage of viable cells, lower left quadrant (Annexin-V-/PI-): 24 h; for percentage of early apoptotic cells, lower right quadrant (Annexin-V+/PI-): 72 h
Procedure: Human Annexin V/PI Apoptosis Detection Kit I (BD Biosciences Pharmingen, Franklin Lakes, NJ, USA) was used to determine the mode of cell death induced by ampelopsin E. Briefly, the MDA-MB-231 cells were seeded at 150,000 cells per well in a 6-well plate. Next, the cells were treated with ampelopsin E (7.5–30 μM). The untreated cells were also included as a control. The cells were harvested and washed with 2 mL of ice-cold PBS. Subsequently, the samples were mixed with 100 μL of […] binding buffer on ice. Next, in the dark, 5 μL annexin V and 5 μL of propidium iodide (1 mg/mL) were added with 15 min of incubation on ice. Next, 400 μL of […] binding buffer was added to dilute the samples. The cells were analyzed by using FACS Calibur flow cytometer (Becton Dickinson, USA). The results were analysed by using FlowJo version 8.6 (Treestar Inc., San Carlos, CA).

[11] = tested on: MCF-7 cells; parameters: method as in Wibowo et al. [34]; settings: MCF-7, ampelopsin E from Dryobalanops beccarii; ref Wibowo et al. [34]; cited from earlier work

Compound | IC50 ([1]; MDA-MB-231, 72 h) [µM] | IC50 ([2]; MCF-7, 72 h) [µM] | IC50 [3] [µM] | IC50 [4] [µM] | IC50 [5] [µM] | IC50 [6] [µM] | IC50 [7] [µM] | also measured
Oc1ccc([C@@H]2c3c(O)cc(O)cc3[C@@H]3c4c(O)cc(O)cc4[C@H]2[C@H]3c2ccc(O)cc2)cc1 [Ampelopsin F, ampelopsin F] | > 30 | > 30 | > 30 | > 30 | > 30 | > 30 |  | 
COc1cccc2c1C(=O)c1c(O)c3c(c(O)c1C2=O)C[C@@](O)(C(=O)CO)C[C@@H]3O[C@H]1C[C@H](N)[C@H](O)[C@H](C)O1 [Doxorubicin, reference compound] |  |  |  |  |  |  |  | IC50 ([1]; Homo sapiens, MDA-MB-231, 72 h): 0.4 µM; IC50 ([2]; Homo sapiens, MCF7, MCF-7, 72 h): 0.21 ± 0.27 µM; IC50 ([7]; Homo sapiens, MCF-10A): > 10 µM
Oc1ccc(/C=C/c2c3c(cc4c2[C@@H](c2cc(O)cc(O)c2)[C@H](c2ccc(O)cc2)O4)O[C@H](c2ccc(O)cc2)[C@H]3c2cc(O)cc3c2[C@@H](c2cc(O)cc(O)c2)[C@H](c2ccc(O)cc2)O3)cc1 [Flexuosol A, flexuosol A] | 27.5 ± 3.54 | > 30 | > 30 | > 30 | > 30 | > 30 | > 30 | 
O=C1O[C@@H]2[C@H](O)COC23O[C@@H](c2ccc(O)cc2)[C@H](c2cc(O)cc4c2[C@@H](c2cc(O)cc(O)c2)[C@H](c2ccc(O)cc2)O4)[C@@]13O (stereo partly drawn) [Laevifonol, laevifonol] | > 30 | > 30 | > 30 | > 30 | > 30 | > 30 |  | 
Oc1ccc(/C=C\c2c3c(cc4c2[C@@H](c2cc(O)cc(O)c2)[C@@H](c2ccc(O)cc2)O4)O[C@H](c2ccc(O)cc2)[C@@H]3c2cc(O)cc(O)c2)cc1 [Malaysianol D] | > 30 | > 30 |  |  |  |  | > 30 | 
Malaysianol A | 23 ± 4.24 | > 30 |  |  |  |  | > 30 | 
ampelopsin E | 14.5 ± 0.71 | 29.5 ± 0.71 | > 30 | > 30 | > 30 | > 30 | > 30 | cell viability ([1]; 15–30 μM, p < 0.05): significant reduction; IC50 ([1]; MDA-MB-231, 24 h): 30 ± 0.13 µM; IC50 ([1]; MDA-MB-231, 48 h): 16 ± 2.01 µM; IC50 ([1]; MDA-MB-231, 72 h, listed as ampelopsin E): < 15 µM; morphological changes ([8]; 7.5 μM): membrane blebbing; morphological changes ([8]; 15 μM): cell shrinkage; morphological changes ([8]; 30 μM, 48 and 72 h): Cell detachment, cell shrinkage and formation apoptotic bodies; cell cycle arrest [9]: increase in G2/M population; percentage of viable cells, lower left quadrant (Annexin-V-/PI-) ([10]; 7.5 μM): 75.3%; percentage of early apoptotic cells, lower right quadrant (Annexin-V+/PI-) ([10]; 7.5 μM): 12.9%; percentage of viable cells, lower left quadrant (Annexin-V-/PI-) ([10]; 15 μM): 69.0%; percentage of early apoptotic cells, lower right quadrant (Annexin-V+/PI-) ([10]; 15 μM): 23.6%; percentage of viable cells, lower left quadrant (Annexin-V-/PI-) ([10]; 30 μM): 57.1%; percentage of early apoptotic cells, lower right quadrant (Annexin-V+/PI-) ([10]; 30 μM): 33.9%; mode of cell death ([10]; 7.5-30 μM): induced apoptosis; IC50 [11]: 21 µM
nepalensinol E | > 30 | > 30 | > 30 | > 30 | > 30 | > 30 |  | 

— paper PMC5017001, “Induction of apoptosis and G2/M arrest by ampelopsin E from Dryobalanops towards triple negative breast cancer cells, MDA-MB-231” (BMC Complementary and Alternative Medicine, 2016)
